Measurements taken from ChEMBL document CHEMBL1135516, “Three-dimensional quantitative structure-activity relationship analysis of ligand binding to human sequence antidigoxin monoclonal antibodies using comparative molecular field analysis” (J Med Chem, 2002).
Calls of active or inactive are those of the source. The rule behind the calls is not given here.

How the values were obtained:
[1] = test system: Monoclonal antibody (mAb); assay: Binding affinity against human monoclonal antibody (mAb)-1B3
[2] = test system: Monoclonal antibody (mAb); assay: Binding affinity against human monoclonal antibody (mAb)-7F2
[3] = test system: Monoclonal antibody (mAb); assay: Binding affinity against human monoclonal antibody (mAb)-11E6
[4] = test system: Monoclonal antibody (mAb); assay: Binding affinity against human monoclonal antibody (mAb)-5C2
[5] = test system: Monoclonal antibody (mAb); assay: Binding affinity against murine monoclonal antibody (mAb)-40-50

Structure (SMILES)	IC50 ratio [1]	IC50 ratio [2]	IC50 ratio [3]	IC50 ratio [4]	Relative Ki [5]
CC(=O)O[C@]1(C(C)=O)CC[C@H]2[C@@H]3C=C(Cl)C4=CC(=O)CC[C@]4(C)[C@H]3CC[C@@]21C	No inhibition	No inhibition			
C[C@]12C=CC(=O)C=C1CC[C@@H]1[C@@H]2C(=O)C[C@@]2(C)[C@H]1CC[C@]2(O)C(=O)CO	No inhibition	No inhibition	No inhibition	3400	
C[C@]12CC[C@H](O)CC1=CC[C@@H]1[C@@H]2CC[C@]2(C)C(=O)CC[C@@H]12	No inhibition				
C[C@]12CC[C@@H](O)C[C@H]1CC[C@@H]1[C@@H]2C[C@@H](O)[C@]2(C)[C@@H](C3=CC(=O)OC3)CCC12O (stereo partly specified)					12
C[C@]12CC[C@@H]3c4ccc(O)cc4CC[C@H]3[C@@H]1CC[C@@H]2O	inactive	inactive	inactive	inactive	
C[C@]12CCC(=O)C=C1CC[C@@H]1[C@@H]2[C@@H](O)C[C@@]2(C)[C@H]1CC[C@]2(O)C(=O)CO	No inhibition	1100	3700	650	
CO[C@H]1C(O)[C@H](O[C@H]2CC[C@@]3(C)[C@H](CC[C@@H]4[C@@H]3CC[C@]3(C)[C@@H](C5=CC(=O)OC5)CC[C@]43O)C2)O[C@@H](C)[C@@H]1O[C@@H]1O[C@H](CO[C@@H]2O[C@H](CO)[C@@H](O)[C@H](O)[C@H]2O)[C@@H](O)[C@H](O)[C@H]1O (stereo partly specified)	97	8.6	18	7.6	
C[C@]12CC[C@H]3[C@@H](CCC4=CC(=O)CC[C@@]43C)[C@@H]1CC[C@@H]2O	inactive	100	110	120	
C[C@H]1O[C@@H](O[C@H]2[C@@H](O)C[C@H](O[C@H]3CC[C@@]4(C)[C@H](CC[C@@H]5[C@@H]4C[C@@H](O)[C@]4(C)[C@@H](C6=CC(=O)OC6)CC[C@]54O)C3)O[C@@H]2C)C[C@H](O)[C@@H]1O	1.6	1	0.9	1.3	
CC1CC(O[C@H]2CC[C@@]3(C)[C@H](CC[C@@H]4[C@@H]3CC[C@]3(C)[C@@H](C5=CC(=O)OC5)CC[C@]43O)C2)CC(O)C1O (stereo partly specified)	36	29	25	47	
C[C@]12CC[C@H](O)CC1CC[C@@H]1[C@@H]2CC[C@]2(C)[C@@H](C3=CC(=O)OC3)CC[C@]12O (single isomer, unassigned)	4900	4.1	6.7	3.6	
C[C@]12CC[C@@H](O)C[C@@H]1CC[C@@H]1[C@@H]2CC[C@]2(C)C(=O)CC[C@@H]12	inactive	1300	1800	inactive	
CC(C)CCC[C@@H](C)[C@H]1CC[C@H]2[C@@H]3CC=C4C[C@@H](O)CC[C@]4(C)[C@H]3CC[C@]12C	inactive	inactive	inactive	inactive	
C[C@]12CC[C@H](O)C[C@H]1CC[C@@H]1[C@@H]2CC[C@]2(C)[C@@H](c3ccc(=O)oc3)CC[C@]12O	6700	550	260	250	
CC(=O)O[C@H]1C[C@H](O[C@H]2CC[C@@]3(C)[C@H](CC[C@@H]4[C@@H]3C[C@@H](O)[C@]3(C)C(C5=CC(=O)OC5)CC[C@]43O)C2)O[C@H](C)[C@H]1O[C@H]1C[C@H](O)[C@H](O[C@H]2C[C@H](O)[C@H](O)[C@@H](C)O2)[C@@H](C)O1 (stereo partly specified)	0.9	1	1.5	0.9	
CC(=O)O[C@H]1C[C@H](O[C@H]2[C@@H](O)C[C@H](O[C@H]3[C@@H](O)C[C@H](O[C@H]4CC[C@@]5(C)[C@H](CC[C@@H]6[C@@H]5CC[C@]5(C)[C@@H](C7=CC(=O)OC7)CC[C@]65O)C4)O[C@@H]3C)O[C@@H]2C)O[C@H](C)[C@H]1O	3.9	25	20	48	
CC(=O)O[C@]1(C(C)=O)CC[C@H]2[C@@H]3CCC4=C/C(=N/OCC(=O)O)CC[C@]4(C)[C@H]3CC[C@@]21C	No inhibition	No inhibition			
CC(=O)O[C@H]1[C@H]2O[C@]23[C@@H]2CC[C@@H]4C[C@@H](O)CC[C@]4(C)[C@H]2CC[C@]3(C)[C@H]1c1ccc(=O)oc1	98000	1700	800	570	
CC(=O)O[C@H]1C[C@H](O[C@H]2[C@@H](O)C[C@H](O[C@H]3[C@@H](O)C[C@H](O[C@H]4CC[C@@]5(C)[C@H](CC[C@@H]6[C@@H]5C[C@@H](O)[C@]5(C)[C@@H](C7=CC(=O)OC7)CC[C@]65O)C4)O[C@@H]3C)O[C@@H]2C)O[C@H](C)[C@H]1O[C@@H]1O[C@H](CO)[C@@H](O)[C@H](O)[C@H]1O	1.6	1.4	1.6	1.1	
CC(=O)OCC(=O)[C@@]1(O)CC[C@H]2[C@@H]3CCC4=CC(=O)C=C[C@]4(C)[C@H]3[C@@H](O)C[C@@]21C	No inhibition	12000			
C[C@]12CCC(=O)C=C1CC[C@@H]1[C@@H]2C(=O)C[C@@]2(C)[C@H]1CC[C@]2(O)C(=O)CO	No inhibition	No inhibition	No inhibition	No inhibition	
C[C@H]1O[C@@H](O[C@H]2[C@@H](O)C[C@H](O[C@H]3CC[C@@]4(C)[C@H](CC[C@@H]5[C@@H]4CC[C@]4(C)[C@@H](C6=CC(=O)OC6)CC[C@]54O)C3)O[C@@H]2C)C[C@H](O)[C@@H]1O	4.9	14	11	14	
C[C@]12C=CC(=O)C=C1CC[C@@H]1[C@@H]2[C@@H](O)C[C@@]2(C)[C@H]1CC[C@]2(O)C(=O)COC(=O)CCC(=O)O	160000	3400			
C[C@@H]1O[C@@H](O[C@@H]2C=C3CC[C@@H]4[C@H](CC[C@]5(C)[C@@H](c6ccc(=O)oc6)CC[C@]45O)[C@@]3(C)CC2)[C@H](O)[C@H](O)[C@H]1O	670	69	800	400	
C[C@]12C[C@H](O)[C@H]3[C@@H](CCC4=CC(=O)CC[C@@]43C)[C@@H]1CC[C@@H]2C(=O)CO	14000	390	970	420	
C[C@]12CCC(=O)C=C1CC[C@@H]1[C@@H]2[C@@H](O)C[C@]2(C=O)[C@@H](C(=O)CO)CC[C@@H]12	inactive	540	760	550	
C[C@H]1O[C@@H](O[C@H]2[C@@H](O)C[C@H](O[C@H]3[C@@H](O)C[C@H](O[C@H]4CC[C@@]5(C)[C@H](CC[C@@H]6[C@@H]5CC[C@]5(C)[C@H](C7COC(=O)C7)CC[C@]65O)C4)O[C@@H]3C)O[C@@H]2C)C[C@H](O)[C@@H]1O (stereo partly specified)	340	1800			
C[C@H]1O[C@@H](O[C@@H]2CC[C@@]3(O)CC[C@@H]4[C@H](CC[C@]5(C)[C@@H](C6=CC(=O)OC6)CC[C@]45O)[C@@]3(C=O)C2)C[C@H](O)[C@@H]1O	6200	2100	2500	3000	
